According to patent US12492337B2, “Fluorescent probe, preparation method therefor and use thereof” (FLUORESCENCE DIAGNOSIS (SHANGHAI) BIOTECH COMPANY, priority 2017, dated 2025):

Columns and labels:
[1] = Viscosity responsiveness: fluorescence intensity in glycerol versus methanol; format: physicochemical; details: fluorescence intensity in glycerol to that in methanol
Protocol: The above-mentioned viscosity-responsive fluorescent dye means that the fluorescence intensity of the dye responds to the viscosity of the solution. As the viscosity of the solution increases, the fluorescence intensity increases. Optionally, the viscosity-responsive fluorescent dye is an organic dye molecule which, under the same concentration and excitation wavelength, at 25° C. has a ratio • of the maximum fluorescence emission intensity of the dye in glycerol to the fluorescence intensity in methanol of greater than 2, optionally greater than 5, optionally greater than 10. The concentration of the viscosity-responsive dye ranges from 1×10^−7 M to 1×10^−5 M.

[2] = Quantum yield of free probe not reacted with protein tag; format: physicochemical
Protocol: (§1) A probe was mixed with a corresponding HaloTag protein tag to obtain a mixed sample. The final concentration of the probe in the mixed sample was 5 μM and the final concentration of the protein tag was 10 μM. The mixed sample was incubated at 37° C. for 1 hour, and the sample was detected using a fluorescence spectrophotometer.

HaloTag protein tag = assay: Probe mixed with HaloTag protein tag, fluorescence spectrophotometer (Example 86); format: biochemical; details: 5 μM probe, 10 μM protein tag, 37° C., 1 hour; for Fluorescence enhancement: fluorescence activation multiple after binding protein tag; for Emission/nm: fluorescence emission wavelength
Protocol: as §1

SMILES	ratio [1]	The quantum yield of the free probe [2]	The quantum yield after binding to Halo-tag (HaloTag protein tag)	Fluorescence enhancement (HaloTag protein tag)	Emission/nm (HaloTag protein tag) [nm]
CN(CCOC(=O)NCCOCCOCCCCCCCl)c1ccc2cc(/C=C(\C#N)c3nc4ccccc4o3)sc2c1 [Probe 14]	560	<0.001	0.52	771	610
CC(C)(C)OC(=O)/C(C#N)=C/c1cc2ccc(N(CCO)CCOC(=O)NCCOCCOCCCCCCCl)cc2s1 [Probe 15]	320	<0.001	0.53	379	570
CC1=N/C(=C\c2cc3ccc(N(C)CCOC(=O)NCCOCCOCCCCCCCl)cc3s2)C(=O)N1C [Probe 17]	402	<0.001	0.56	498	575
CN(CCOC(=O)NCCOCCOCCCCCCCl)c1ccc2cc(/C=C(\C#N)C(=O)O)sc2c1 [Probe 18]	301	0.0017	0.51	444	568
CN(CCOC(=O)NCCOCCOCCCCCCCl)c1ccc2nc(/C=C(\C#N)C(=O)OC(C)(C)C)oc2c1 [Probe 19]	299	0.0012	0.53	561	625
CN(CCOC(=O)NCCOCCOCCCCCCCl)c1ccc2nc(/C=C(\C#N)c3nc4ccccc4o3)oc2c1 [Probe 20]	341	<0.001	0.47	612	640
CN(CCOC(=O)NCCOCCOCCCCCCCl)c1ccc2nc(/C=C(\C#N)C(=O)O)oc2c1 [Probe 21]	1481	<0.001	0.48	560	628
CN1C(=O)/C(=C/c2nc3ccc(N(C)CCOC(=O)NCCOCCOCCCCCCCl)cc3o2)N=C1c1ccccc1 [Probe 22]	1821	<0.001	0.36	610	632
CN(CCOC(=O)NCCOCCOCCCCCCCl)c1ccc2nc(/C=C(\C#N)c3nc4ccccc4s3)oc2c1 [Probe 23]	1235	<0.001	0.52	712	637
CN(CCOC(=O)NCCOCCOCCCCCCCl)c1ccc2nc(/C=C(\C#N)C(=O)OC(C)(C)C)sc2c1 [Probe 24]	1681	<0.001	0.52	590	622
CN(CCOC(=O)NCCOCCOCCCCCCCl)c1ccc2nc(/C=C(\C#N)C(=O)O)sc2c1 [Probe 25]	1621	<0.001	0.51	670	620
CN(CCOC(=O)NCCOCCOCCCCCCCl)c1ccc2nc(/C=C(\C#N)C(=O)OC(C)(C)C)ccc2c1 [Probe 26]	1123	<0.001	0.56	910	590
CN(CCOC(=O)NCCOCCOCCCCCCCl)c1ccc2nc(/C=C(\C#N)c3nc4ccccc4o3)ccc2c1 [Probe 27]	1134	<0.001	0.43	665	620
CN(CCOC(=O)NCCOCCOCCCCCCCl)c1ccc(C#C/C=C(\C#N)C(=O)OC(C)(C)C)cc1 [Probe 28]	1132	<0.001	0.41	551	566
CN(CCOC(=O)NCCOCCOCCCCCCCl)c1cc2sc3cc(/C=C(\C#N)C(=O)OC(C)(C)C)sc3c2s1 [Probe 29]	998	<0.001	0.53	621	640
CN(CCOC(=O)NCCOCCOCCCCCCCl)c1cc2sc3cc(/C=C(\C#N)c4nc5ccccc5o4)sc3c2s1 [Probe 30]	1125	<0.001	0.60	535	620
CN(CCOC(=O)NCCOCCOCCCCCCCl)c1cc2sc3cc(/C=C(\C#N)c4nc5ccccc5s4)sc3c2s1 [Probe 31]	1135	<0.001	0.41	875	660
CN(CCOC(=O)NCCOCCOCCCCCCCl)c1ccc2c(c1)sc1cc(/C=C(\C#N)C(=O)OC(C)(C)C)sc12 [Probe 32]	997	<0.001	0.46	638	609
CN(CCOC(=O)NCCOCCOCCCCCCCl)c1ccc(-c2ccc(/C=C(\C#N)C(=O)OC(C)(C)C)s2)cc1 [Probe 33]	1781	<0.001	0.47	957	620
COCCNC(=O)/C(C#N)=C/c1ccc(-c2ccc(N(C)CCOC(=O)NCCOCCOCCCCCCCl)cc2)o1 [Probe 34]	1774	<0.001	0.32	857	615
CN(CCOC(=O)NCCOCCOCCCCCCCl)c1ccc(-c2ccc(/C=C(\C#N)C(=O)O)s2)cc1 [Probe 35]	972	0.0012	0.45	433	618
CN(CCOC(=O)NCCOCCOCCCCCCCl)c1cc2cc3sc(/C=C(\C#N)C(=O)OC(C)(C)C)cc3cc2s1 [Probe 36]	1258	0.001	0.58	488	630
CN(CCOC(=O)NCCOCCOCCCCCCCl)c1cc2c(s1)-c1sc(C=C(C#N)C#N)cc1[Si]2(C)C [Probe 37]	1135	0.0012	0.56	469	655
CN(CCOC(=O)NCCOCCOCCCCCCCl)c1cc2c(s1)-c1sc(/C=C(\C#N)C(=O)OC(C)(C)C)cc1[Si]2(C)C [Probe 38]	1011	0.0011	0.56	503	650
